Assay results taken from PMC9258905, “Discovery of Quercetin and Its Analogs as Potent OXA-48 Beta-Lactamase Inhibitors” (Frontiers in Pharmacology, 2022).
Like-named read-outs stand apart in the source and are kept apart here.

Key:
KPC-2 = test system: KPC-2; design: method as in Papp-Wallace et al., 2010; conditions: for KPC-2; ref Papp-Wallace et al., 2010; cited from earlier work
OXA-48 β-Lactamase = biological target: T1, OXA-48 β-Lactamase (Klebsiella pneumoniae, UniProt Q6XEC0); experiment: Partition ratio measurement; assay type: biochemical; conditions: OXA-48 12 nM, 1 h incubation; at a 5 μM concentration of quercetin
T1 construct: made in house; host or cells: E. coli BL21(DE3)
T1 sequence (Q6XEC0 23-265 limits assumed): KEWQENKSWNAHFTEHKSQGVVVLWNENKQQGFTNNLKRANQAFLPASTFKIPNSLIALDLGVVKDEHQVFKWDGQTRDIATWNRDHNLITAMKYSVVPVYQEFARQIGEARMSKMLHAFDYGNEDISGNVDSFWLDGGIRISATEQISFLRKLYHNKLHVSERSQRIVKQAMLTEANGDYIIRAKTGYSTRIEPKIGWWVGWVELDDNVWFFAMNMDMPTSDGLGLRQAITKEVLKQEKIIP

OXA-48 [1] = biological target: T2, OXA-48 (Klebsiella pneumoniae, UniProt Q6XEC0); experiment: Surface plasmon resonance interaction analysis; assay type: binding; conditions: 12.5-200 µM quercetin over immobilized OXA-48
T2 construct: made in house; host or cells: E. coli BL21(DE3)
T2 sequence (Q6XEC0 23-265 limits assumed): as above
Description: Surface plasmon resonance (SPR) experiments were performed on a Biacore T100 at 25°C. The running buffer consisted of 10 mM PBS (pH 7.3), 0.5% Tween-20, and 2.5% DMSO. OXA-48 solution was prepared in a concentration of […] in 10 mM PBS (pH 7.3) and immobilized on a CM5 chip using standard amine coupling to a level of approximately 5000 RU. Quercetin was dissolved in the running buffer and tested in 2-fold dilutions ranging from 12.5 to 200 µM with an injection time of 30 s and a dissociation time of 60 s. The data were analyzed using Biacore T100 Evaluation Software 2.0.
A surface plasmon resonance (SPR) assay was then performed to investigate whether quercetin inhibited the activity of OXA-48 by directly binding to OXA-48. OXA-48 enzyme was immobilized on a CM5 sensor chip with an immobilization level of approximately 5000 RU. Quercetin was injected at different concentrations (12.5, 25, 50, 100 and 200 µM) over the protein surface.

[2] = test system: ∆acrA∆bamB (OXA-48) mutant strain; experiment: Cell-based screen of natural products in the presence of piperacillin; design: species or system E. coli
Description: The ∆acrA∆bamB (OXA-48) mutant strain was then used to screen for inhibitors of OXA-48. […] Approximately 150 plant natural products with a concentration of 40 μg/mL were screened in the presence of 128 μg/mL piperacillin.

[3] = test system: E.coli BW25113 ∆acrA∆bamB (OXA-48); assay type: cell-based; conditions: for reduction in the piperacillin MIC: compound at 64 μg/mL; for MIC decrease for imipenem: compound at a dose of 64 μg/mL
Description: The recombinant plasmid containing the Pbla promoter and OXA-48 constructed above was then transformed into BW25113, BW25113 ∆acrA, BW25113 ∆bamB, and BW25113 ∆acrA∆bamB. The above strains were used to study the minimum inhibitory concentration (MIC). Antibiotic susceptibility tests were performed by the microdilution method following Clinical and Laboratory Standards Institute (CLSI) criteria ([CLSI, 2015]). Four E. coli strains expressing OXA-48 were used to assess the inhibitors. The susceptibility to piperacillin/imipenem combined with the compound at a concentration of 16 or 64 μg/mL was determined. […] Each measurement was conducted in triplicate. The fractional inhibitory concentration index (FICI) was determined according to the following formula: FICI = MIC (QT) in combination/MIC (QT) alone + MIC (PIP) in combination/MIC (PIP) alone. The drug interactions are defined as synergistic if the FICI is ≤0.5, indifferent if the FICI is >0.5 and ≤4.0, and antagonistic if the FICI is >4.0.
To investigate whether the compounds could restore the antimicrobial activity of β-lactam, the MICs of β-lactam antibiotics against resistant Gram-negative bacteria in the absence and presence of compounds (fisetin, 3′,4′,7-trihydroxyflavone, luteolin or quercetin) were determined by using published guidelines described by CLSI ([CLSI, 2015]). Specifically, we used OXA-48 producing strains E. coli BW25113, BW25113 ∆acrA, BW25113 ∆bamB, and BW25113 ∆acrA∆bamB as resistant Gram-negative bacteria. […] Imipenem, a carbapenem antibiotic, was applied at increasing concentrations ranging from 0.03 μg/mL to 4 μg/mL. The compounds were tested at 64 and 16 μg/mL.

OXA-48 [4] = biological target: T2, OXA-48; experiment: Enzyme inhibition assay against purified OXA-48 with nitrocefin as substrate; assay type: biochemical; conditions: for percent inhibition against OXA-48: at 50 μM compound, nitrocefin substrate, 50 µM; for IC50: purified OXA-48 12 nM, nitrocefin 200 μM, 0.1 M phosphate buffer pH 7.0, 50 mM NaHCO3, 25°C, read-out: IC50 against OXA-48
Description: The inhibitory activity of compounds against the purified OXA-48 was tested on a BioTek HTS reader. The reactions were conducted in 0.1 M phosphate buffer (pH 7.0) supplemented with 50 mM NaHCO3 at 25°C with a final assay volume of 100 μL. The concentrations of enzyme and substrate were 12 nM and 200 μM, respectively. The initial reaction rates in the absence and presence of the compound were monitored at 495 nm in triplicate. The inhibitor concentration causing a 50% decrease in enzyme activity (IC50) was determined by plotting the percent inhibition against the log10 of the inhibitor concentration and fitting the data in a dose–response-inhibition model using GraphPad Prism 7.0.
Quercetin is a member of the flavonoid class with diverse structures obtained from nature, some of which have been used for the treatment of infectious diseases in traditional medical systems ([Farhadi et al., 2019]). To investigate whether quercetin and other flavonoids are OXA-48 inhibitors, the enzyme inhibition assays were conducted on a BioTek HTS reader using nitrocefin as a substrate. The concentrations of enzyme and substrate were 12 nM and 200 μM, respectively. The initial hydrolysis rate of nitrocefin was monitored at 495 nm. The percentage inhibition is defined as the enzyme activity in the absence of inhibitor (100%) minus the remaining activity in the presence of inhibitor.

[5] = test system: E. coli BW25113 ∆acrA∆bamB (OXA-48); experiment: Mouse systemic infection model; assay type: in vivo, Kunming mice; conditions: 10 mg/kg each, intravenous, 1 h post infection; organs 24 h post-infection; vs untreated group
OXA-48 [6] = biological target: T2, OXA-48; experiment: Isothermal titration calorimetry of imipenem hydrolysis by OXA-48; assay type: biochemical; conditions: quercetin 0 to 40 µM, imipenem 1 mM, OXA-48 10 nM, 25°C
Description: OXA-48, imipenem, and quercetin were prepared in 30 mM Tris, 5 mM NaHCO3 (pH 7.5) supplemented with 5% DMSO. […] The solutions were degassed by centrifugation at a speed of 14,000 × g for 5 min before injection. The enzyme and inhibitor samples were preincubated for 1 h and then loaded into the sample cell. Imipenem (38 µL) in the syringe was titrated into the sample cell (210 µL) in a single injection mode. Heat flow (μcal/s) was recorded as a function of time. As a negative control, the reaction in the absence of quercetin was measured. The data were collected and analyzed with MicroCal Analysis Launcher Origin 7.0 software.
Isothermal titration calorimetry (ITC) was performed to assess the thermodynamic inhibitory effect of quercetin against OXA-48 ([Zhang et al., 2018]). […] Different concentrations of quercetin were incubated with purified OXA-48 for 1 h in 30 mM Tris, 5 mM NaHCO3 (pH 7.5). The mixtures were loaded into the sample cell (210 µL). A 38 µL of the substrate (imipenem) in the syringe was titrated into the sample cell in a single injection mode.

[7] = test system: E. coli BW25113 ∆acrA∆bamB (OXA-48); experiment: Growth curve with quercetin alone; assay type: cell-based; conditions: quercetin at 16 or 64 μg/mL
From the text: We next performed checkerboard microdilution assays against OXA-48-positive strain BW25113 ∆acrA∆bamB (OXA-48) and OXA-48-negative strain ∆acrA∆bamB to assess the synergistic antimicrobial effect. […] The synergy effect was further verified by time-kill curves.
FIGURE 6 (A,B) Heatmap showing the growth inhibition of OXA-48-positive strain E. coli BW25113 ∆acrA∆bamB (OXA-48) (A) and OXA-48-negative strain ∆acrA∆bamB (B) in the presence of quercetin and piperacillin. (C) Time-kill curves for combination therapy of piperacillin and quercetin against E. coli BW25113 ∆acrA∆bamB (OXA-48). The concentrations of piperacillin and quercetin used in the assay were 64 and 64 μg/mL , respectively. (D) The growth curve of E. coli BW25113 ∆acrA∆bamB (OXA-48) in the absence and presence of quercetin.

mice = conditions: cited from earlier work
OXA-48 [8] = biological target: T2, OXA-48; experiment: Inhibition kinetics (Lineweaver-Burk plots) of OXA-48-catalyzed nitrocefin hydrolysis; assay type: biochemical; conditions: for inhibition mode: Lineweaver-Burk plots, Km unchanged, Vmax decreased; for Ki: nitrocefin 25, 50, 75, 100 μM, Lineweaver-Burk
Description: The inhibition mode of quercetin and the inhibition constant (K i) were determined using a Lineweaver–Burk plot by fitting the initial rate versus the substrate concentration at each inhibitor concentration using SigmaPlot 12.0. The nitrocefin concentrations were 25, 50, 75, and 100 μM, respectively. The initial velocity was determined by measuring the […] as described above. All reaction rates were determined in triplicate.
To determine the inhibition mode of the flavonoids, the inhibition kinetics of quercetin, fisetin and luteolin against OXA-48 in the presence of different concentrations of substrate were determined, and the inhibition modes were determined by generating Lineweaver-Burk plots.

cells = conditions: 50 µM fisetin/luteolin; ref Hytti et al., 2015; cited from earlier work

In the case of O=C(O)[C@H]1/C(=C/CO)O[C@@H]2CC(=O)N21 [clavulanic acid], the partition ratio (KPC-2) is listed as 2,500.

In the case of O=c1c(O)c(-c2ccc(O)c(O)c2)oc2cc(O)cc(O)c12 [Quercetin], the “partition ratio (I:E for greater than 90% inhibition)” value (OXA-48 β-Lactamase) is reported as “approximately 420”, the “SPR interaction with OXA-48” value (OXA-48 [1]) is reported as “dose-dependent interaction” and the “restoration of antibiotic activity in screen” value ([2]; 40 μg/mL compound with 128 μg/mL piperacillin) is reported as “restored antibiotic activity”. For the same molecule, the “bactericidal effect of the compound itself” value ([2]; in the absence of piperacillin) was “without bactericidal effect”, the “reduction in the piperacillin MIC” value [3] was 8 fold and the “MIC decrease for imipenem” value [3] was 2 fold. For the same molecule, the “percent inhibition against OXA-48” value (OXA-48 [4]) was 87%, the “percent inhibition against OXA-48” value (OXA-48 [4]; listed as quercetin) was “more than 50%” and the IC50 (OXA-48 [4]) was 1470 ± 140 nM. The “bacterial load in spleen and liver” value [5] was “did not show a significant reduction of bacterial load”, the “reversibility of inhibition (total heat of imipenem hydrolysis)” value (OXA-48 [6]) was “reversibly inhibited OXA-48” and the “growth of the cells” value [7] was “did not inhibit the growth of the cells”. The LD50 (mice; ref Sullivan et al., 1951, Taepongsorat et al., 2008) was 160 mg/kg, the inhibition mode (OXA-48 [8]) was “noncompetitively inhibited” and the Ki (OXA-48 [8]) was 1310 ± 210 nM.

For O=c1cc(-c2ccc(O)c(O)c2)oc2cc(O)cc(O)c12 [Luteolin], the “reduction in the piperacillin MIC” value [3] was 4 fold, the “MIC decrease for imipenem” value [3] was 2 fold and the “percent inhibition against OXA-48” value (OXA-48 [4]) was 81%. The “percent inhibition against OXA-48” value (OXA-48 [4]; listed as luteolin) was “more than 50%”, the IC50 (OXA-48 [4]) was 550 ± 20 nM and the LD50 (mice; ref Ardeshir et al., 2018) was 150 mg/kg. The inhibition mode (OXA-48 [8]) was “noncompetitively inhibited” and the Ki (OXA-48 [8]) was 820 ± 50 nM.

For O=c1c(O)c(-c2ccc(O)c(O)c2)oc2cc(O)ccc12 [Fisetin], the “toxicity to the cells” value (cells) is listed as “no toxicity”, the “reduction in the piperacillin MIC” value [3] is listed as 2 fold and the “MIC decrease for imipenem” value [3] is listed as 2 fold. The “percent inhibition against OXA-48” value (OXA-48 [4]) was 90%, the “percent inhibition against OXA-48” value (OXA-48 [4]; listed as fisetin) was “more than 50%” and the IC50 (OXA-48 [4]) was 470 ± 30 nM. For the same molecule, the inhibition mode (OXA-48 [8]) was “noncompetitively inhibited” and the Ki (OXA-48 [8]) was 620 ± 60 nM.
